The values below come from patent publication US20260092074A1, “Annelated Pyridines as Steroidogenesis Inhibitors, Preparation Method and Use Thereof” (Guangzhou Vinnocent Pharmaceutical Limited, priority 2022, published 2026).

For assay [1], the target named is T1, human CYP11B2 (Homo sapiens, UniProt P19099).
T1 construct: expressed in transfected cells
T1 sequence (P19099 25-503): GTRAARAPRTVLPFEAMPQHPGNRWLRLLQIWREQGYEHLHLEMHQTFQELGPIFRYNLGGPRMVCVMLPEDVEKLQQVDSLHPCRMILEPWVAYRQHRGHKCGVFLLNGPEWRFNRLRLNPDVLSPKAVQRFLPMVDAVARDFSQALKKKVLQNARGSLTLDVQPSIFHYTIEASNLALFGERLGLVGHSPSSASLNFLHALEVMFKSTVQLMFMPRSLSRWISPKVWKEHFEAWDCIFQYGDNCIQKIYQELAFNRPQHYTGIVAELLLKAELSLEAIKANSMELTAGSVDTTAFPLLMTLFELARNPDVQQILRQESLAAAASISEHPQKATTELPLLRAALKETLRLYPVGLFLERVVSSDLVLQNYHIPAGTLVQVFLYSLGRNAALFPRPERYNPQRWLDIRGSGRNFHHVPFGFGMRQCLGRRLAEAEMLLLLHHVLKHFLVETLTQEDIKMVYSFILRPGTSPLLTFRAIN
Put plainly: Inhibition of hCYP11B2 in transfected V79 cells. Type of assay: cell-based. The settings on record: hamster V79 cells expressing human CYP11B2; substrate 11-deoxycorticosterone 200 nM. Summed up:
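The substrate (200 nM, 30 min) was added after a 2 hour compound pre-incubation in lentivirus-transduced V79 cells stably expressing human CYP11B2 plus rat NADPH-P450 reductase.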

Assay [2] deals with T2, human CYP11B1 (Homo sapiens, UniProt P15538).
T2 construct: expressed in transfected cells
T2 sequence (P15538 25-503): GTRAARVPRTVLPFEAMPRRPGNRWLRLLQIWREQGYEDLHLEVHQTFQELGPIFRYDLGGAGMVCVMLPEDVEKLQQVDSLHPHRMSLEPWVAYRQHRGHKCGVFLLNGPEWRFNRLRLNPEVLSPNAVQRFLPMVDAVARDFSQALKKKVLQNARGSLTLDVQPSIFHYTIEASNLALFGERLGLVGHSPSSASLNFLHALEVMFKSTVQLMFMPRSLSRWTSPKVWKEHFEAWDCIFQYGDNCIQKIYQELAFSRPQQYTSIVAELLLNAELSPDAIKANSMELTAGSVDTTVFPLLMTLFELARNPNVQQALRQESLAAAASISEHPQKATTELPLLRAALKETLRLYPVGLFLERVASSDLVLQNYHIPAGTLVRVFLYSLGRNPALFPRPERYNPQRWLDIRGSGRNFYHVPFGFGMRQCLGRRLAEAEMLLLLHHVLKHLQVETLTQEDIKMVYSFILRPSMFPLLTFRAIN
The assay is described as follows: Inhibition of hCYP11B1 in transfected V79 cells. The settings on record: hamster V79 cells expressing human CYP11B1; substrate 11-deoxycortisol 200 nM. Type of assay: cell-based. Summed up: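 Reactions started with 200 nM 11-deoxycortisol, ran for 30 min and were stopped with ethyl acetate, after a 2 h compound preincubation. The host was stably transfected V79 hamster cells carrying human CYP11B1 plus rat P450 reductase. Percent inhibition, from LC-MS/MS or HPLC (260 nm) quantitation of substrate and product, gave the IC50.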

The IC50 is the point on the concentration scale where inhibition reaches its midpoint. A higher IC50 goes with lower potency. For the compound `COc1cccc(C(=O)N2CC(C(=O)N3CCOc4c(-c5ccc(C#N)cc5)cncc43)C2)c1` [O76, 4-(4-(1-(3-Methoxybenzoyl)azetidine-3-carbonyl)-3,4-dihydro-2H-pyrido[4,3-b][1,4]oxazin-8-yl)benzonitrile], the 50% inhibitory concentration (IC50) in assay [1] stood at 1.6 nM; in assay [2], 146 nM.

For the compound `COc1ccc(C(=O)N2CC(C(=O)N3CCOc4c(-c5ccc(C#N)cc5)cncc43)C2)cc1` [O77, 4-(4-(1-(4-Methoxybenzoyl)azetidine-3-carbonyl)-3,4-dihydro-2H-pyrido[4,3-b][1,4]oxazin-8-yl)benzonitrile], the IC50 amounted to 2 nM in assay [1] and 195 nM in assay [2].

`N#Cc1ccc(-c2cncc3c2OCCN3C(=O)C2CN(Cc3cccc(F)c3)C2)cc1` [O78, 4-(4-(1-(3-Fluorobenzyl)azetidine-3-carbonyl)-3,4-dihydro-2H-pyrido[4,3-b][1,4]oxazin-8-yl)benzonitrile]: the results for the IC50 in assay [1] and in assay [2] were 2.1 nM and 183 nM, respectively.

For the compound `N#Cc1ccc(-c2cncc3c2OCCN3C(=O)C2CN(Cc3ccc(F)cc3)C2)cc1` [O79, 4-(4-(1-(4-Fluorobenzyl)azetidine-3-carbonyl)-3,4-dihydro-2H-pyrido[4,3-b][1,4]oxazin-8-yl)benzonitrile], the IC50 in assay [1] came out at 2.9 nM; in assay [2], 137 nM.

Turning to `N#Cc1ccc(-c2cncc3c2OCCN3C(=O)C2CN(Cc3cccc(C#N)c3)C2)cc1` [O80, 3-((3-(8-(4-Cyanophenyl)-3,4-dihydro-2H-pyrido[4,3-b][1,4]oxazine-4-carbonyl)azetidin-1-yl)methyl)benzonitrile], the half-maximal inhibitory concentration (IC50) in assay [1] stood at 1 nM; in assay [2], 185 nM.

Turning to `N#Cc1ccc(CN2CC(C(=O)N3CCOc4c(-c5ccc(C#N)cc5)cncc43)C2)cc1` [O81, 4-(4-(1-(4-Cyanobenzyl)azetidine-3-carbonyl)-3,4-dihydro-2H-pyrido[4,3-b][1,4]oxazin-8-yl)benzonitrile], the IC50 in assay [1] was 0.6 nM; in assay [2], 72 nM.

With `COc1cccc(CN2CC(C(=O)N3CCOc4c(-c5ccc(C#N)cc5)cncc43)C2)c1` [O82, 4-(4-(1-(3-Methoxybenzyl)azetidine-3-carbonyl)-3,4-dihydro-2H-pyrido[4,3-b][1,4]oxazin-8-yl)benzonitrile], the IC50 in assay [1] came to 1.4 nM; in assay [2], 69 nM.

Take `COc1ccc(CN2CC(C(=O)N3CCOc4c(-c5ccc(C#N)cc5)cncc43)C2)cc1` [O83, 4-(4-(1-(4-Methoxybenzyl)azetidine-3-carbonyl)-3,4-dihydro-2H-pyrido[4,3-b][1,4]oxazin-8-yl)benzonitrile]: the results for the IC50 in assay [1] and in assay [2] were 1 nM and 112 nM, respectively.

For the compound `N#Cc1ccc(-c2cncc3c2OCCN3C(=O)C2CN(c3cccc(F)c3)C2)cc1` [O84, 4-(4-(1-(3-Fluorophenyl)azetidine-3-carbonyl)-3,4-dihydro-2H-pyrido[4,3-b][1,4]oxazin-8-yl)benzonitrile], the IC50 is 1.6 nM in assay [1] and 53 nM in assay [2].

As for `N#Cc1ccc(-c2cncc3c2OCCN3C(=O)C2CN(c3ccc(F)cc3)C2)cc1` [O85, 4-(4-(1-(4-Fluorophenyl)azetidine-3-carbonyl)-3,4-dihydro-2H-pyrido[4,3-b][1,4]oxazin-8-yl)benzonitrile], the half-maximal inhibitory concentration (IC50) in assay [1] is 4.6 nM; in assay [2], 64 nM.

In the case of `N#Cc1ccc(-c2cncc3c2OCCN3C(=O)C2CN(c3cccc(C#N)c3)C2)cc1` [O86, 3-(3-(8-(4-Cyanophenyl)-3,4-dihydro-2H-pyrido[4,3-b][1,4]oxazine-4-carbonyl)azetidin-1-yl)benzonitrile], the IC50 in assay [1] was determined as 0.8 nM; in assay [2] it was 72 nM.

Take `N#Cc1ccc(-c2cncc3c2OCCN3C(=O)C2CN(c3ccc(C#N)cc3)C2)cc1` [O87, 4-(3-(8-(4-Cyanophenyl)-3,4-dihydro-2H-pyrido[4,3-b][1,4]oxazine-4-carbonyl)azetidin-1-yl)benzonitrile]: the IC50 in assay [1] was determined as 2.5 nM; in assay [2], 55 nM.

For `O=C(C1CN(Cc2cccc(F)c2)C1)N1CCOc2c(-c3ccc4ncsc4c3)cncc21` [O88, (8-(Benzo[d]thiazol-6-yl)-2,3-dihydro-4H-pyrido[4,3-b][1,4]oxazin-4-yl)(1-(3-fluorobenzyl)azetidin-3-yl)methanone], the IC50 was found to be 6 nM in assay [1] and 485 nM in assay [2].

Consider `O=C1Cc2cc(-c3cncc4c3OCCN4C(=O)C3CN(Cc4cccc(F)c4)C3)ccc2N1` [O89, 5-(4-(1-(3-Fluorobenzyl)azetidine-3-carbonyl)-3,4-dihydro-2H-pyrido[4,3-b][1,4]oxazin-8-yl)indolin-2-one], for which the IC50 in assay [1] was determined as 15.6 nM; in assay [2], 2550 nM.

Consider `O=C(C1CN(Cc2cccc(F)c2)C1)N1CCOc2c(-c3ccc4nccn4c3)cncc21` [O90, (1-(3-Fluorobenzyl)azetidin-3-yl)(8-(imidazo[1,2-a]pyridin-6-yl)-2,3-dihydro-4H-pyrido[4,3-b][1,4]oxazin-4-yl)methanone], for which the IC50 turned out to be 48.8 nM in assay [1] and 3260 nM in assay [2].

Consider `O=C(C1CN(Cc2cccc(F)c2)C1)N1CCOc2c(-c3cc4ccc(Cl)cc4[nH]3)cncc21` [O91, (8-(6-Chloro-1H-indol-2-yl)-2,3-dihydro-4H-pyrido[4,3-b][1,4]oxazin-4-yl)(1-(3-fluorobenzyl)azetidin-3-yl)methanone], for which the IC50 amounted to 92 nM in assay [1] and 4160 nM in assay [2].

As to `N#Cc1ccc2cc(-c3cncc4c3OCCN4C(=O)C3CN(Cc4cccc(F)c4)C3)[nH]c2c1` [O92, 2-(4-(1-(3-Fluorobenzyl)azetidine-3-carbonyl)-3,4-dihydro-2H-pyrido[4,3-b][1,4]oxazin-8-yl)-1H-indole-6-carbonitrile], the results for the IC50 in assay [1] and in assay [2] were 28.4 nM and 4440 nM, respectively.

For `O=C(C1CN(Cc2cccc(F)c2)C1)N1CCOc2c(-c3cc4ccc(F)cc4[nH]3)cncc21` [O93, (8-(6-Fluoro-1H-indol-2-yl)-2,3-dihydro-4H-pyrido[4,3-b][1,4]oxazin-4-yl)(1-(3-fluorobenzyl)azetidin-3-yl)methanone], the IC50 in assay [1] amounted to 90 nM; in assay [2] it was 4170 nM.

With `N#Cc1ccc2[nH]c(-c3cncc4c3OCCN4C(=O)C3CN(Cc4cccc(F)c4)C3)cc2c1` [O94, 2-(4-(1-(3-Fluorobenzyl)azetidine-3-carbonyl)-3,4-dihydro-2H-pyrido[4,3-b][1,4]oxazin-8-yl)-1H-indole-5-carbonitrile], the half-inhibitory concentration (IC50) was determined as 4.7 nM in assay [1] and 381 nM in assay [2].

Regarding `O=C(C1CN(Cc2cccc(F)c2)C1)N1CCOc2c(-c3cc4cc(Cl)ccc4o3)cncc21` [O95, (8-(5-Chlorobenzofuran-2-yl)-2,3-dihydro-4H-pyrido[4,3-b][1,4]oxazin-4-yl)(1-(3-fluorobenzyl)azetidin-3-yl)methanone], the IC50 was 41 nM in assay [1] and 4590 nM in assay [2].

As for `N#Cc1ccc2oc(-c3cncc4c3OCCN4C(=O)C3CN(Cc4cccc(F)c4)C3)cc2c1` [O96, 2-(4-(1-(3-Fluorobenzyl)azetidine-3-carbonyl)-3,4-dihydro-2H-pyrido[4,3-b][1,4]oxazin-8-yl)benzofuran-5-carbonitrile], the half-inhibitory concentration (IC50) in assay [1] worked out at 5.2 nM; in assay [2], 1340 nM.

`N#CN1CC=C(c2cncc3c2OCCN3C(=O)C2CN(Cc3cccc(F)c3)C2)CC1` [O97, 4-(4-(1-(3-Fluorobenzyl)azetidine-3-carbonyl)-3,4-dihydro-2H-pyrido[4,3-b][1,4]oxazin-8-yl)-3,6-dihydropyridine-1 (2H)-carbonitrile]: the figures for the IC50 in assay [1] and in assay [2] were 35 nM and 219 nM, respectively.

As for `N#CN1CCN(c2cncc3c2OCCN3C(=O)C2CN(Cc3cccc(F)c3)C2)CC1` [O98, 4-(4-(1-(3-Fluorobenzyl)azetidine-3-carbonyl)-3,4-dihydro-2H-pyrido[4,3-b][1,4]oxazin-8-yl)piperazine-1-carbonitrile], the IC50 in assay [1] was 46 nM; in assay [2], 677 nM.

In the case of `N#CN1CCN(c2cncc3c2OCCN3C(=O)C2CN(Cc3cccc(F)c3)C2)C(=O)C1` [O99, 4-(4-(1-(3-Fluorobenzyl)azetidine-3-carbonyl)-3,4-dihydro-2H-pyrido[4,3-b][1,4]oxazin-8-yl)-3-oxopiperazine-1-carbonitrile], the IC50 in assay [1] came to 39 nM; in assay [2], 652 nM.
